# Reference: US8193237B2, “Indole derivative having IκB kinase β inhibitory activity” (Santen Pharmaceutical Co., Ltd., priority 2007, dated 2012)
# Target: T1, IKKβ (Homo sapiens, UniProt O14920)
# T1 construct: purchased Upstate Biotechnology Inc. 14-485
# T1 sequence (O14920 1-756): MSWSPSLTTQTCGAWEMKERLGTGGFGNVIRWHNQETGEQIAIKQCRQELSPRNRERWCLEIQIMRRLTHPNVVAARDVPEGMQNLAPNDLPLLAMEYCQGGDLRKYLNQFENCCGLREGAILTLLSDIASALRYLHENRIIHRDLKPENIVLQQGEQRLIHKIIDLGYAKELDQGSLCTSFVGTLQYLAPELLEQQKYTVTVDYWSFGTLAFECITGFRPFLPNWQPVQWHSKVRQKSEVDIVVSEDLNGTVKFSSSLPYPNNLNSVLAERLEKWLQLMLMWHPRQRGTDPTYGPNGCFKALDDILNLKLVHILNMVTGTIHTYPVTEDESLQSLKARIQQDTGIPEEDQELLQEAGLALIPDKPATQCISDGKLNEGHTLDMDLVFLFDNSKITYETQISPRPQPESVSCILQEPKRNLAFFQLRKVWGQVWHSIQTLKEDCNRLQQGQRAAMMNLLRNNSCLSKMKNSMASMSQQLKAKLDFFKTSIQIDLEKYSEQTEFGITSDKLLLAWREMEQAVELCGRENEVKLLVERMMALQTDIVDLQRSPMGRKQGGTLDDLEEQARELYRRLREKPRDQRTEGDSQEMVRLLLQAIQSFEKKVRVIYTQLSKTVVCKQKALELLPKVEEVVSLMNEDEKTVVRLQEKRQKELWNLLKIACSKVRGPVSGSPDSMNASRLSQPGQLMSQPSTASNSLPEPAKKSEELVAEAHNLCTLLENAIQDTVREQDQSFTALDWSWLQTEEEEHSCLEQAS
# Experiment: IKKβ inhibition assay by fluorescence polarization (IMAP kit)
# Assay type: biochemical
# Details: test compound at 1 μM; inhibition rate exceeding 100% is indicated as 100%
# Description: In order to evaluate IKKβ inhibitory activity of the present compounds, an IKKβ inhibition assay by the fluorescence polarization method was conducted.
# The assay was conducted using IMAP™ IKKβ assay kit (manufactured by Molecular Devices Corporation, catalogue No. R8115) or IMAP™ FP Screening Express kit (manufactured by Molecular Devices Corporation, catalogue No. R8127) and in accordance with the protocol attached to each kit. The specific methods are described below. (Preparation of Reagents)
# 1) Complete Reaction Buffer: a complete reaction buffer was so prepared as to obtain a final concentration of 10 mM Tris-HCL (pH 7.2), 10 mM magnesium chloride, 0.1% bovine serum albumin, and 1 mM dithiothreitol.
# 2) Substrate Working Solution: 400 nM of a substrate working solution was prepared by dissolving and diluting a fluorescein-labeled IKKβ substrate peptide (amino acid sequence: GRHDSGLDSMK) with the complete reaction buffer.
# 3) Enzyme Working Solution: 0.2 units/mL of an enzyme working solution was prepared by diluting IKKβ solution (manufactured by Upstate Biotechnology Inc., catalogue No. 14-485) with the complete reaction buffer.
# 4) ATP Working Solution: 8 μM of an ATP working solution was prepared by dissolving ATP into ultrapure water followed by diluting it with the complete reaction buffer.
# 5) IMAP binding solution: After diluting an IMAP binding buffer with ultrapure water, an IMAP binding solution was prepared by diluting an IMAP binding reagent with the diluted IMAP binding buffer.
# A test compound was dissolved in dimethylsulfoxide followed by diluting it with the complete reaction buffer to prepare 4 μM of a test compound solution.
# 1) To a 384-well plate, the test compound solution, the enzyme working solution, the substrate working solution, and the ATP working solution were added in an amount of 5 μL per well.
# 2) Incubation was performed at a room temperature for 60 minutes under light shielding.
# 3) The IMAP binding solution was added in an amount of 60 μL per well.
# 4) Incubation was performed at a room temperature for 30 minutes under light shielding.
# 5) Fluorescence polarization value of each well was measured by using Analyst™ HT (multimode plate reader manufactured by Molecular Devices Corporation) and Criterion Host Software v2.00 (manufactured by Molecular Devices Corporation).
# 6) Operations were performed in the same manner as in 1) to 5) except for changing the test compound to 0.4% dimethylsulfoxide. The obtained result was designated as a control.
# 7) Operations were performed in the same manner as in 1) to 5) except for changing the test compound and the enzyme working solution to 0.4% dimethylsulfoxide and the complete reaction buffer, respectively. The obtained result was designated as a background.
# An IKKβ inhibition rate (%) was calculated by the following equation.
# IKKβ inhibition rate (%)=100×{1−(fluorescence polarization value of test compound−fluorescence polarization value of background)/(fluorescence polarization value of control−fluorescence polarization value of background)}
row,inhibition at 1 µM [%],SMILES
1,86,"NC(=O)Nc1c(C(N)=O)c2ccc(Br)cc2n1O [Compound 1-1, 2-Aminocarbonylamino-6-bromo-1-hydroxyindole-3-carboxamide]"
2,55,"Cc1ccc2[nH]c(NC(N)=O)c(C(N)=O)c2c1 [Compound 1-2, 2-Aminocarbonylamino-5-methylindole-3-carboxamide]"
3,80,"CC(=O)Nc1ccc2c(C(N)=O)c(NC(N)=O)[nH]c2c1 [Compound 2-1, 6-Acetylamino-2-aminocarbonylaminoindole-3-carboxamide]"
4,49,"NC(=O)Nc1[nH]c2cc(NC(=O)c3ccccc3)ccc2c1C(N)=O [Compound 2-2, 2-Aminocarbonylamino-6-benzoylaminoindole-3-carboxamide]"
5,56,"NC(=O)Nc1[nH]c2cc(NC(=O)Nc3ccccc3)ccc2c1C(N)=O [Compound 2-3, 2-Aminocarbonylamino-6-(3-phenylureido)indole-3-carboxamide]"
6,95,"CN(C)c1ccc2c(C(N)=O)c(NC(N)=O)[nH]c2c1 [Compound 2-4, 2-Aminocarbonylamino-6-dimethylaminoindole-3-carboxamide]"
7,86,"NC(=O)Nc1[nH]c2cc(N3CCCC3)ccc2c1C(N)=O [Compound 2-5, 2-Aminocarbonylamino-6-(pyrrolidin-1-yl)indole-3-carboxamide]"
8,100,"NC(=O)Nc1[nH]c2cc(-n3cccc3)ccc2c1C(N)=O [Compound 2-9, 2-Aminocarbonylamino-6-(pyrrol-1-yl)indole-3-carboxamide]"
9,75,"NC(=O)Nc1[nH]c2ccccc2c1C(N)=O [Compound 2-10, 2-Aminocarbonylaminoindole-3-carboxamide]"
10,96,"Cc1c(Br)ccc2c(C(N)=O)c(NC(N)=O)[nH]c12 [Compound 2-11, 2-Aminocarbonylamino-6-bromo-7-methylindole-3-carboxamide]"
11,95,"NC(=O)Nc1[nH]c2cc(C(F)(F)F)ccc2c1C(N)=O [Compound 2-16, 2-Aminocarbonylamino-6-trifluoromethylindole-3-carboximide]"
12,100,"COC(=O)c1ccc2c(C(N)=O)c(NC(N)=O)[nH]c2c1 [Compound 2-17, 2-aminocarbonylamino-6-methoxycarbonylindole-3-carboxamide]"
13,100,"NC(=O)Nc1[nH]c2cc(Br)ccc2c1C(N)=O [Compound 3-1, 2-Aminocarbonylamino-6-bromoindole-3-carboxamide]"
14,97,"NC(=O)Nc1[nH]c2cc(-c3ccc(F)cc3)ccc2c1C(N)=O [Compound 4-1, 2-Aminocarbonylamino-6-(4-fluorophenyl)indole-3-carboxamide]"
15,100,"NC(=O)Nc1[nH]c2cc(-c3ccccc3)ccc2c1C(N)=O [Compound 4-2, 2-Aminocarbonylamino-6-phenylindole-3-carboxamide]"
16,98,"COc1cccc(-c2ccc3c(C(N)=O)c(NC(N)=O)[nH]c3c2)c1 [Compound 4-4, 2-Aminocarbonylamino-6-(3-methoxyphenyl)indole-3-carboxamide]"
17,100,"NC(=O)Nc1[nH]c2cc(-c3cccs3)ccc2c1C(N)=O [Compound 4-8, 2-Aminocarbonylamino-6-(thiophen-2-yl)indole-3-carboxamide]"
18,100,"NC(=O)Nc1[nH]c2cc(-c3cccnc3)ccc2c1C(N)=O [Compound 4-9, 2-Aminocarbonylamino-6-(pyridin-3-yl)indole-3-carboxamide]"
19,100,"NC(=O)Nc1[nH]c2cc(-c3ccccc3F)ccc2c1C(N)=O [Compound 4-10, 2-Aminocarbonylamino-6-(2-fluorophenyl)indole-3-carboxamide]"
20,100,"NC(=O)Nc1[nH]c2cc(-c3cccc(F)c3)ccc2c1C(N)=O [Compound 4-11, 2-Aminocarbonylamino-6-(3-fluorophenyl)indole-3-carboxamide]"
